Two molecules from US8343580B2, “Organometallic compounds” (Rohm and Haas Electronic Materials LLC, priority 2009, dated 2013) can be followed below.

Bounds are passed on as bounds.

A short description of data set [1]: Solubility in organic solvents at room temperature by direct dissolution method. Format: physicochemical. The settings on record: for Solubility: room temperature; for Solubility in aromatic solvents: toluene and tetralin, by NMR spectroscopy and direct dissolution method. As to the method:
The solubility of N,N′-di-tert-butylacetamidinato-N,N′-di-tert-butylacetamidinatocarbamoyl dicarbonyl Ruthenium(II) (“Ru-Cbm-Invention”, from Example 1) and bis(N,N′-di-tert-butylacetamidinato) dicarbonyl Ruthenium(II) (“Ru-AMD-Comparative”) were determined at room temperature in a variety of solvents by direct dissolution method. The solid Ru-AMD-Comparative compound was prepared by the synthetic route described in R. Gordon et al., The Open Inorganic Chemistry Journal, 2 (2008) 11. Compounds with less than 0.01 wt % dissolved were considered to be sparingly soluble.

A short description of data set [2]: Decomposition temperature by accelerated rate calorimetry (ARC). Format: physicochemical. The settings on record: ARC adiabatic calorimeter, self-heating exceeding 0.02° C./minute. As to the method:
The decomposition temperature of N,N′-di-tert-butylacetamidinato-N,N′-di-tert-butylacetamidinatocarbamoyl dicarbonyl Ruthenium(II) (“Ru(AMD)-Cbm”) was determined using accelerated rate calorimetry (ARC™ adiabatic calorimeter available from Arthur D. Little). A sample of the compound was placed in a spherical bomb that was connected to a sealed pressure measurement system. A thermocouple was attached to the outside of the bomb and the bomb was placed in the center of the calorimeter assembly. The calorimeter assembly has 3 zones, each zone having its own thermocouple and heaters. The ARC™ calorimeter uses a heat-wait-search-exotherm program. The calorimeter and the sample were heated to a start temperature. The sample and calorimeter temperatures equilibrated during the wait portion of the program. Next, the calorimeter monitored the sample for self-heating (exceeding 0.02° C./minute) during the search portion of the program to determine the onset temperature of the exotherm. To be useful in ALD processes, a precursor should not decompose at temperatures at or below 140° C., and preferably not at or below 150° C.

[3] abbreviates: Mixture of Diphenyl ether and Biphenyl.
Setting [4] is: Polyethylene glycol dibutyl ether.

In the case of `CC(=NC(C)(C)C)[N]([Ru][N](C(C)=NC(C)(C)C)C(C)(C)C)C(C)(C)C.[C-]#[O+].[C-]#[O+]` [Ru-AMD, bis(N,N′-di-tert-butylacetamidinato) dicarbonyl Ruthenium(II), reference compound], the Solubility in data set [1] (Cyclohexylbenzene), in data set [1] (Cyclohexylbenzene:LAB (1:1)), in data set [1] (LAB), in data set [1] (setting [3]), in data set [1] (Pentamethyldiethylenetriamine) and in data set [1] (setting [4]) was below 0.01 wt % throughout. The Solubility was 0.7 wt % in data set [1] (THF), below 0.01 wt % in data set [1] (Tetralin), below 0.01 wt % in data set [1] (Toluene) and “insoluble” in data set [1] (n-Octane). The “Solubility in aromatic solvents” value in data set [1] was “little to no solubility”.
Regarding `CC1=[N+](C(C)(C)C)[Ru-4]2([C]#[O+])([C]#[O+])([C](=O)N1C(C)(C)C)[N](C(C)(C)C)C(C)=[N+]2C(C)(C)C` [Ru-Cbm, N,N′-di-tert-butylacetamidinato-N,N′-di-tert-butylacetamidinatocarbamoyl dicarbonyl Ruthenium(II)], the Solubility came to 6.0 wt % in data set [1] (Cyclohexylbenzene); 6.0 wt % in data set [1] (Cyclohexylbenzene:LAB (1:1)); 3.0 wt % in data set [1] (LAB); 12.0 wt % in data set [1] (setting [3]); 15.0 wt % in data set [1] (Pentamethyldiethylenetriamine); 8.0 wt % in data set [1] (setting [4]). Moreover, the Solubility in data set [1] (THF) stood at 43.6 wt %; in data set [1] (Tetralin) it was 8.5 wt %; in data set [1] (Toluene), 38.5 wt %; in data set [1] (n-Octane) it was 2.3 wt %. In data set [1] (in tetrahydrofuran), the “Increase of solubility as compared to Ru-AMD” value worked out at 62 fold. For the same molecule, in data set [1], the “Solubility in aromatic solvents” value is “soluble”. For the same molecule, in data set [2], the “Temperature up to which the sample was stable (decomposition, onset of exotherm)” value was “up to 250 °C”.
